Legend:
[1] = tested on: bone-marrow derived macrophages (BMDM); assay: Dectin-1 expression in bone-marrow derived macrophages; format: cell-based, mouse; conditions: cytokine added to day 8 BMDM cultures for 24h
[2] = tested on: pancreatic oncogenesis in KC mice; assay: KC mice endogenous pancreatic tumor model; format: in vivo, mouse; conditions: Dectin-1-/- mice, 20 mg/kg i.p. five times weekly, 8 weeks, vs vehicle
Text: C57BL/6 (H-2Kb) mice were purchased from Jackson Labs (Bar Harbor, Me.) and bred in-house. KC and KPC mice develop pancreatic neoplasia endogenously by expressing mutant Kras alone or mutant Kras and p53, respectively, in the progenitor cells of the pancreas (Hingorani et al., Cancer Cell, 2003, 4, 437-450; Hingorani et al., Cancer Cell, 2005, 7, 469-483). Tumor progression and survival in control KC mice has been previously detailed (Daley et al., Cell, 2016, 166, 1485-1499). Dectin-1^−/− mice were crossed with KC mice to generate KC; Dectin-1^−/− animals. For orthotopic pancreatic tumor challenge, mice were administered intra-pancreatic injections of either Kras^G12D PDEC or FC1242 tumor cells derived from KPC mice. Kras^G12D PDEC and FC1242 cells were generated as previously described (Pylayeva-Gupta et al., Cancer Cell, 2012, 21, 836-847; Zambirinis et al., J Exp Med., 2015, 212, 2077-2094). […] Mice were sacrificed 3 weeks later and tumor weight recorded. […] PDEC proliferation was measured using the XTT assay according to the manufacturer's protocol (Roche, Nutley, N.J.). […]
For histological analysis, pancreatic specimens were fixed with 10% buffered formalin, dehydrated in ethanol, embedded with paraffin, and stained with H&E or Gomori's Trichrome. The fraction of preserved acinar area was calculated as previously described (Seifert et al., Nature, 2016, 532, 245-249). […]

[3] = tested on: Dectin-1/Galectin-9 interaction; assay: Galectin-9 immunoprecipitation with PNGase F or lactose treatment; format: binding; conditions: PNGase F pretreatment of Dectin-1 or 100 mM lactose pre-incubation of Galectin-9; SDS-PAGE
Method: Dectin-1 IgG Fc (8 μg; InvivoGen) was treated with PNGase F (20 μl, ˜10,000 units; New England Biolabs) following the company's non-denaturing protocol (37° C., 24 hr). PNGase F treated and untreated Dectin-1 IgG Fc samples (4 μg; InvivoGen) were added to protein G beads (25 μl, Dynabeads Protein G; novex) and the mixtures were incubated at room temperature for 10 min. The beads were washed 2× with PBS-T (pH 7.4 with 0.02% tween). Recombinant mouse Galectin-9 (4 μg; R&D Systems) was resuspended in PBS-T or a solution of 100 mM lactose in PBS-T. Galectin-9 samples were then incubated with the Dynabead/Dectin-1 IgG Fc complex for 20 min at room temperature. The Dynabeads were then washed 3× with PBS-T and transferred to a clean tube. Galectin-9 and Dectin-1 IgG Fc were eluted in SDS-PAGE buffer (PBS with 10% BME) by heating at 98° C. for 10 min. The samples were then analyzed by SDS-PAGE and stained with Coomassie Blue.

TGF-3: cytokine added to BMDM cultures; printed TGF-β in methods
Dectin-1 expression in BMDM [1]: did not influence Dectin-1 expression

TNF-α
Dectin-1 expression in BMDM [1]: did not influence Dectin-1 expression

Oc1cc(O)cc(/C=C/c2ccc(O)c(O)c2)c1 [Piceatannol]
pancreatic tumor weight [2]: no effect

OC[C@H]1O[C@@H](O[C@H]2[C@H](O)[C@@H](O)C(O)O[C@@H]2CO)[C@H](O)[C@@H](O)[C@H]1O (stereo partly shown) [lactose]
effect on Dectin-1/Galectin-9 binding [3]: no alteration of the Dectin-1/Galectin-9 interaction

From patent US20180044422A1, “TREATING SOLID TUMOR BY TARGETING DECTIN-1 SIGNALING” (New York University, priority 2016, published 2018)
